Columns and labels:
C2Cl2 myotubes = experiment: Immunoblot analysis of signaling in C2Cl2 myotubes; format: cell-based, mouse
Procedure: (§1) BT-474 and MCF7 breast cancer cells, C2Cl2 mouse myoblast cells, and HEK 293T cells were maintained in high-glucose DMEM medium containing 10% FBS. L6 rat myoblast cells were maintained in α-MEM medium containing 10% FBS. For differentiation into myotubes, C2Cl2 cells were kept in DMEM medium containing 2% horse serum for 5 days, and L6 cells were kept in α-MEM medium containing 2% FBS for 7 days. Amino-acid-free DMEM medium was prepared using powder from USBio, and MEM amino acids solution was from Gibco. Media were all supplemented with 100 U/ml penicillin/streptomycin. Cell lines were purchased from ATCC.
(§2) After wash with cold DPBS buffer, cells were lysed in RIPA buffer that contained 50 mM Tris-HCl pH 8.0, 150 mM NaCl, 1 mM EDTA, 1 mM EGTA, 1% NP-40, 0.5% sodium deoxycholate, 0.1% SDS, and protease and phosphatase inhibitor cocktails (Roche). Total protein concentrations were measured using a BCA assay (Thermo scientific). Cell lysate (about 80 μg protein) was resolved by SDS-PAGE and blotted onto PVDF membranes. The membranes were probed overnight at 4° C. with appropriate primary antibodies (Cell Signaling Technology) and incubated with secondary fluorescent antibodies (LI-COR Biosciences) for 1 hr at room temperature before imaging by an Odyssey CLx system.

L6 myotubes = experiment: Immunoblot analysis of ACC phosphorylation in L6 myotubes; format: cell-based, rat; conditions: dose-dependent
Procedure: as §1, §2

BT474 cells [1] = experiment: Proliferation (CellTiter-Glo); format: cell-based
Procedure: To measure cell number using the CellTiter-Glo 2.0 assay kit (Promega), cultured cells were equilibrated to room temperature for 30 min, and an equal volume of the CellTiter-Glo reagent was added and mixed for 2 min on an orbital shaker. The plates were incubated for another 10 min before luminescence was recorded using a SpectraMax M5 plate reader. To assess the effect of compound on growth, cells were plated onto white solid-bottom 96-well plates (coming 3917) at 2,000 cells per well in sextuplicate. After 24 hrs, compound (or DMSO control) was added to the wells, and cell number was determined after culturing for 0, 24, 48, and 72 hrs.

BT-474 cells = experiment: Intracellular ROS (DCFDA); format: cell-based; conditions: 20 μM
Procedure: 2′,7′-dichlorofluorescin diacetate (DCFDA) was used to assess intracellular ROS levels. DCFDA is deacetylated in the cell and oxidized by ROS to a fluorescent product 2′,7′-dichlorofluorescein (DCF). BT-474 cells were plated on a black clear-bottom 96-well plate (Corning 3603; 2×10^4 cells per well). ROS was measured by a DCFDA cellular ROS detection assay kit (Abcam) following the manufacturer's protocol. The cells were treated with compound for 6 hrs before fluorescence was measured using a SpectraMax M5 plate reader (excitation 485 nm, emission 535 nm).

BT474 cells [2] = experiment: Glucose consumption and lactate secretion in BT474 cells; format: cell-based
Procedure: To measure glucose consumption and lactate production, a total of 1×10^5 cells were seeded into each well of a 12-well plate and cultured in the presence of compound for 48 hrs. The culture media were collected and deproteinized by centrifugation using an Amicon Ultra centrifugal filter (3 kDa cut-off), while cells were lysed and used for protein concentration determination by BCA assay. The media were assayed immediately for glucose and lactate levels using colorimetric assay kits from BioVision following the manufacturer's protocols. The values were normalized against protein concentration. All measurements were made in triplicate.

PIKfyve = PIKfyve (Homo sapiens, UniProt Q9Y2I7); experiment: Lipid kinase assay
NEK1 = NEK1 (Homo sapiens, UniProt Q96PY6); experiment: HotSpot protein kinase panel; conditions: read-out: NEK1 activity remaining
c-MER = c-MER (Homo sapiens, UniProt Q12866); experiment: HotSpot protein kinase panel; conditions: read-out: c-MER activity remaining
TYRO3 = TYRO3 (Homo sapiens, UniProt Q06418); experiment: HotSpot protein kinase panel; conditions: read-out: TYRO3 activity remaining
RSK2 = RSK2 (Homo sapiens, UniProt P51812); experiment: HotSpot protein kinase panel; conditions: read-out: RSK2 activity remaining
Procedure: (§3) In both titrations, the ATP concentration was fixed at 50 μM. The assay kits for Plk1 and RSK2 were obtained from Promega (Madison, Wis.), which use ADP-Glo™ for activity detection.

PI4P5Kγ = PI4P5Kγ (Homo sapiens, UniProt O60331); experiment: Lipid kinase panel (ADP-Glo); conditions: read-out: PI4P5Kγ activity remaining
PI3Kγ = PI3Kγ (Homo sapiens, UniProt P48736); experiment: Lipid kinase panel (ADP-Glo)
Procedure: (§4) In both titrations, the ATP concentration was fixed at 50 μM.

p110α/p85α = p110α/p85α (Homo sapiens, UniProt P42336); experiment: In vitro lipid kinase profiling
Plk1 = Plk1 (Homo sapiens, UniProt P53350); experiment: Plk1 kinase assay kit (Promega, ADP-Glo); conditions: ATP 50 μM
Procedure: as §3

[3] = tested on: panel of 14 lipid kinases; experiment: Lipid kinase panel (ADP-Glo), panel as a whole; conditions: compound 0.5 μM, ATP 10 μM
Procedure: as §4

Sequence of Plk1 (P53350 whole entry): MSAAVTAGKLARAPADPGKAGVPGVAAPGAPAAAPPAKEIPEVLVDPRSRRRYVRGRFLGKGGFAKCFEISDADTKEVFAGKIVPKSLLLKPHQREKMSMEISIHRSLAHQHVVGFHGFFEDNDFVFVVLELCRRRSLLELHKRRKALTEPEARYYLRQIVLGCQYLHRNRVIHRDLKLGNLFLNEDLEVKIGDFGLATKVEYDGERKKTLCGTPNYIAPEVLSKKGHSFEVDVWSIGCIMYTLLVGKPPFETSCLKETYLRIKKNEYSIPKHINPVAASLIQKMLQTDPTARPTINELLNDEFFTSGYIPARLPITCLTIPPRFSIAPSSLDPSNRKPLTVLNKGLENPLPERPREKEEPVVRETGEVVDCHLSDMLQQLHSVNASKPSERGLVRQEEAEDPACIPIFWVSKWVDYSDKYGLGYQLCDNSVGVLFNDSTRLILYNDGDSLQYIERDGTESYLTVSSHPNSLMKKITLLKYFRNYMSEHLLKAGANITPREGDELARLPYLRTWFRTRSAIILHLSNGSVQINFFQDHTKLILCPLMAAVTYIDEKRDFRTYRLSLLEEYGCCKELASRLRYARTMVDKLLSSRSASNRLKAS
Sequence of NEK1 (Q96PY6 whole entry): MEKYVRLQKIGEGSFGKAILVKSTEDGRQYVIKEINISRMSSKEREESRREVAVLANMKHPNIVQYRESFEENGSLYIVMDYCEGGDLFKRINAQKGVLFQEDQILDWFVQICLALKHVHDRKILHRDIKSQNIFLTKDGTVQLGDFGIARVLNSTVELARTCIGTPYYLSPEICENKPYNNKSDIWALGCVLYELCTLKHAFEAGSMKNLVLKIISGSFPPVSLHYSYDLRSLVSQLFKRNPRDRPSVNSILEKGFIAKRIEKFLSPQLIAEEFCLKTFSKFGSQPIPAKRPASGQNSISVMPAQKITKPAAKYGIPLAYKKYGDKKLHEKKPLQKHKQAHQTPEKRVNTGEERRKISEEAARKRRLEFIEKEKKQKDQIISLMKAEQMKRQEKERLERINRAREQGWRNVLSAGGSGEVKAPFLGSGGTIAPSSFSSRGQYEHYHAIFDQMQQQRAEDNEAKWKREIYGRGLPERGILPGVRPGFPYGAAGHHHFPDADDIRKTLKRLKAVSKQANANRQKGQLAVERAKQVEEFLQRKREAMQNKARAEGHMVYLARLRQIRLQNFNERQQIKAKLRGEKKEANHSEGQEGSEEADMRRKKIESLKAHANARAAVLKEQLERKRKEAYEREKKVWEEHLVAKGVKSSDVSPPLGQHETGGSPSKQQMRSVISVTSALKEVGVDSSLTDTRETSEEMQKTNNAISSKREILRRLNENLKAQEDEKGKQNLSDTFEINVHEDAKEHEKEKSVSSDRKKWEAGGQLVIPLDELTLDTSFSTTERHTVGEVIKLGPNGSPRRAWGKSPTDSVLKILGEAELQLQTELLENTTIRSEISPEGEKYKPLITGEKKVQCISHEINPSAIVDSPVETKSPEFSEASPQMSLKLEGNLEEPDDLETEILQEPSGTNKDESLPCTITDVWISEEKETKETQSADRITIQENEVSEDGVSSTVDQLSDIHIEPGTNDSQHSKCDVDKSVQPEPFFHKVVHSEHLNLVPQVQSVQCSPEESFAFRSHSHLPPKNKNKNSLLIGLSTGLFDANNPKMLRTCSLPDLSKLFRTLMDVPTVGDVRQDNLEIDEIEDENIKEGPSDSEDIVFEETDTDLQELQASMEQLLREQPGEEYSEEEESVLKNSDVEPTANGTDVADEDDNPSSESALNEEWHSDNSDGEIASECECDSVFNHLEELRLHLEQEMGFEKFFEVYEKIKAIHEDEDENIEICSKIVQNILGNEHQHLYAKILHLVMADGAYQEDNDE
Sequence of PI3Kγ (P48736 whole entry, species assumed): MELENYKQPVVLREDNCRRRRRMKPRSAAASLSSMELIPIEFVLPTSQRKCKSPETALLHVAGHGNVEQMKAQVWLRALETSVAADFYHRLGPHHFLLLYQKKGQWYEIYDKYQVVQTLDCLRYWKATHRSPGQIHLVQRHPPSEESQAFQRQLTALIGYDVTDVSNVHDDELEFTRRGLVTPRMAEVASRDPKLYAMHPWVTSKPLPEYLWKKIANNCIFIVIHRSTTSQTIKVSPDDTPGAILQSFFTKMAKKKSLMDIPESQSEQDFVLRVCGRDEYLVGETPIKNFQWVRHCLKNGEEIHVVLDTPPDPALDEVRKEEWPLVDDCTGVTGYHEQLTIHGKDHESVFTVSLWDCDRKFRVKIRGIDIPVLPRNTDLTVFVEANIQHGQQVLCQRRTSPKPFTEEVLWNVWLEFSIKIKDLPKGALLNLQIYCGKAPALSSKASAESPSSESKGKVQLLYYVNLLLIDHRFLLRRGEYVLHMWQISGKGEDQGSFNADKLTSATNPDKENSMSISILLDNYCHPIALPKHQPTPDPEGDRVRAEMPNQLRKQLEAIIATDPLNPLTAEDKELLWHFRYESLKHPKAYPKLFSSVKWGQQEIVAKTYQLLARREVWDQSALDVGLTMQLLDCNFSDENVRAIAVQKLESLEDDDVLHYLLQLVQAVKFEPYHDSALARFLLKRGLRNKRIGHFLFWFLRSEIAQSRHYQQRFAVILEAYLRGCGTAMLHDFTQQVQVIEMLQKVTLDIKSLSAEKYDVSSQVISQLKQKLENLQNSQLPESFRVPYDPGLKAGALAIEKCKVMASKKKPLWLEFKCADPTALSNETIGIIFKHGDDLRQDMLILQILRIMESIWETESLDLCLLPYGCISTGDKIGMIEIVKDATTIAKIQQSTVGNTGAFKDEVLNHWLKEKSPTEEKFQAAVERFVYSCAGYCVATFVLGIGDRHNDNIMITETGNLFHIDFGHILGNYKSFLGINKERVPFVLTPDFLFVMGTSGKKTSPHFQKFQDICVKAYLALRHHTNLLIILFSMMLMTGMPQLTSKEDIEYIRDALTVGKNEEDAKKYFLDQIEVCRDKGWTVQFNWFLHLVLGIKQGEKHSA
Sequence of PIKfyve (Q9Y2I7 whole entry, species assumed): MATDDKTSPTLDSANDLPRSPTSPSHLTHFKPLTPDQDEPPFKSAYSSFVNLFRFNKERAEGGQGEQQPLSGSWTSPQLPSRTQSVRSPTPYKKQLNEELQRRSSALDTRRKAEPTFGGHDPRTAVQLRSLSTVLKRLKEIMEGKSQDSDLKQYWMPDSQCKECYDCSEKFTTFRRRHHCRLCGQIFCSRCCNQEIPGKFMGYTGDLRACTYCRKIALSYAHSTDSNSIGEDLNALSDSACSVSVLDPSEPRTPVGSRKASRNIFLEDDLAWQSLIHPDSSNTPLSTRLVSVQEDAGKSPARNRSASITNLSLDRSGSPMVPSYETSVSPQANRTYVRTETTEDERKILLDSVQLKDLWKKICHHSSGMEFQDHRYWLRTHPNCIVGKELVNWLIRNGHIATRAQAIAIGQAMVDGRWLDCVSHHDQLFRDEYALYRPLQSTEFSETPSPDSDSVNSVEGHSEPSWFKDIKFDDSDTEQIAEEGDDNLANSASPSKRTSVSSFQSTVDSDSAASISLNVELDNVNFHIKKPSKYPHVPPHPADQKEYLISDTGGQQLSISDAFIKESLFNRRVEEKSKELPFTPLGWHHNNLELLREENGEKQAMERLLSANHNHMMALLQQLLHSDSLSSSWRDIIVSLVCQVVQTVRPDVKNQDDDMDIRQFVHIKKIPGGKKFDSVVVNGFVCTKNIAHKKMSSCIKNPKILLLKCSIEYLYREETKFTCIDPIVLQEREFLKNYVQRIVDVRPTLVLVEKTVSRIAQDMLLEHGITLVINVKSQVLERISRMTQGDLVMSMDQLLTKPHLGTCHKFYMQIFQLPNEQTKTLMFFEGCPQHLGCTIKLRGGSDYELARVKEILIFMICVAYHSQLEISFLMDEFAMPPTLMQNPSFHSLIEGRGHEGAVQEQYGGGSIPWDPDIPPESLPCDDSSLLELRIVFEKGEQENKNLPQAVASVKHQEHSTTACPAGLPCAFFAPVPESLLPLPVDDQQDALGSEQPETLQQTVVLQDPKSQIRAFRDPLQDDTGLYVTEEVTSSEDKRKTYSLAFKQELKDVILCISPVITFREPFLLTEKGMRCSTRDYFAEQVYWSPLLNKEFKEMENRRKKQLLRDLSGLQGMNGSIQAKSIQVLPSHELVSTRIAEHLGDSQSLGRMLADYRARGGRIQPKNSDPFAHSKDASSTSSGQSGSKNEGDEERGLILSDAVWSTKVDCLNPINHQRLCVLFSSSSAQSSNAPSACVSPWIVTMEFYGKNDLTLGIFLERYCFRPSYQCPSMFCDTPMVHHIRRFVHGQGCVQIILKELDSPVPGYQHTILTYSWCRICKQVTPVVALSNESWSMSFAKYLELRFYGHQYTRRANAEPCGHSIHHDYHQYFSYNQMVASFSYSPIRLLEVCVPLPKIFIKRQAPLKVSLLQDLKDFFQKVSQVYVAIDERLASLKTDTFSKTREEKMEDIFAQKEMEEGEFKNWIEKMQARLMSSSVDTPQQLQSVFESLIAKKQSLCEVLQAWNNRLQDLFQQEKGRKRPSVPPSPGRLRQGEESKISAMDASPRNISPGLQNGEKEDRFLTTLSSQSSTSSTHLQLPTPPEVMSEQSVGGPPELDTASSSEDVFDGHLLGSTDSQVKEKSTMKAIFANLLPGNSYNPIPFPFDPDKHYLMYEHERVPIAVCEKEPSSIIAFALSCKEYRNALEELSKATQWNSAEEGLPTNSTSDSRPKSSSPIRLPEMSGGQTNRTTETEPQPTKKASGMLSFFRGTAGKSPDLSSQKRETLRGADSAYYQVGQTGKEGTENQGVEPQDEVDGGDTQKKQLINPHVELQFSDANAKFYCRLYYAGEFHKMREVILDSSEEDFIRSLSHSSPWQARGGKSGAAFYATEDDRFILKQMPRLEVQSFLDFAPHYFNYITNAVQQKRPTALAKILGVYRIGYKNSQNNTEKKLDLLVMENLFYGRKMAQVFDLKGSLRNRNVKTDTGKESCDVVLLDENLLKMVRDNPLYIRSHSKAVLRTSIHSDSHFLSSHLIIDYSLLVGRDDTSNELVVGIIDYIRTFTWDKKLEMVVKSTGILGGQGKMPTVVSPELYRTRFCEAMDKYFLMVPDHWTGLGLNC

CN1C(=O)[C@@H](CC2CCCC2)N(C2CCCC2)c2nc(Nc3cc(Cl)c(O)c(Cl)c3)ncc21 [7a, (R)-8-cyclopentyl-7-(cyclopentylmethyl)-2-((3,5-dichloro-4-hydroxyphenyl)amino)-5-methyl-7,8-dihydropteridin-6(5H)-one]
basal and insulin-induced phosphorylation of S6K at Thr-389 (C2Cl2 myotubes): reduced
phosphorylation of acetyl-CoA carboxylase (ACC) (C2Cl2 myotubes; C2Cl2 myotubes, dose-dependent): significantly increased
IRS phosphorylation at Ser-302 (C2Cl2 myotubes; FIG. 3D): reduced
Akt phosphorylation (C2Cl2 myotubes; FIG. 3D, comparison 7a vs rapamycin): more pronounced effect
hormone-induced Akt phosphorylation, especially at Ser-473 (C2Cl2 myotubes; overnight incubation with 20 μM): increased
phosphorylation of acetyl-CoA carboxylase (ACC) (L6 myotubes): significantly increased
sensitivity of BT474 growth to inhibition at 32° C. (BT474 cells [1]; 32° C. (restores p53 function)): less sensitive
growth of BT474 cells (BT474 cells [1]; dose-dependent, 37° C.): inhibited
ROS (BT-474 cells): increased
lactate fermentation (BT474 cells [2]; absence of serum): slightly increased
metabolic switch induced by serum (glucose consumption, lactate secretion) (BT474 cells [2]; with serum): prevented
Ki (PIKfyve): ~200 nM
remaining activity at 0.5 µM (NEK1): 67%
remaining activity at 0.5 µM (c-MER): 67%
remaining activity at 0.5 µM (TYRO3): 72%
remaining activity at 0.5 µM (RSK2): 83%
remaining activity at 0.5 µM (PI4P5Kγ): 98%
Ki (PI3Kγ): ~200 nM
inhibition of p110α/p85α (p110α/p85α): not inhibited
inhibition of Plk1 (Plk1): no longer inhibited
inhibition of other lipid kinases of the panel [3]: did not inhibit most PI3Ks, PI4Ks or sphingosine kinases
